Experimental data published in US12564188B2, “Hydrogel beads for controlled uptake and release of cryoprotective agents” (The General Hospital Corporation, priority 2020, dated 2026).
Like-named read-outs stand apart in the source and are kept apart here.

Experiments:
patients = settings: cited from earlier work
[1] = DMSO release from hydrogel beads into saline, osmolality by micro-osmometer; type: physicochemical; settings: room temperature, 5.0 μL beads incubated in 15% DMSO
Description: Here, beads 1-5 mm in diameter were synthesized using microfluidic droplet generation and 2% polyacrylamide/bis-acrylamide, following standard oil emulsion methods^43, and beads were synthesized using calcium alginate. Uniform calcium-alginate hydrogel beads were synthesized by dripping 5% alginate from a needle with a surrounding nitrogen gas sheath into a CaCl2 bath. Bead size and uniformity was confirmed by imaging. 5.0 μL beads were incubated for four hours in a 15% DMSO solution, then strained, blotted, and weighed. Beads were then suspended in saline for several minutes under gentle mixing, and the rate of DMSO release was measured over time by sampling the solution and measuring osmolality by micro-osmometer. The rate of release was compared with numerical simulations of diffusion based on the average bead size (FIG. 3). The diffusion coefficient of DMSO within the gel was measured to be 1.0×10^−5 cm^2s^−1 at room temperature, matching expected values^41,42.
Expected outcomes and alternative approaches: The key metric of success is the ability to reliably add and then remove CPA from a given sample solution at tunable rates which are predicted by modeling. Bead geometry alone is sufficient to achieve gradual CPA uptake and release. The sample recovery was about 96% without any dilution in these experiments.

[2] = DMSO implicated, co-injection with CAR T cells

C[S+](C)[O-] [DMSO, dimethyl sulfoxide]
aphasia (patients; [2]): 18%
delirium (patients; [2]): 29%
encephalopathy (patients; [2]): 34%
tremors (patients; [2]): 29%
patients experiencing nausea and vomiting (patients; co-injection of 10-20 mL DMSO along with CAR T cells): 40-60%
patients experiencing nausea and vomiting (patients; co-injection of approximately 10 mL DMSO along with thawed CAR T cell product): up to 60%
diffusion coefficient of DMSO within the gel [1]: 1.0×10^−5 cm^2s^−1
